# Values quoted from earlier work as cited in article PMC4704022, “Insights on FXR selective modulation. Speculation on bile acid chemical space in the discovery of potent and selective agonists” (Scientific Reports, 2016).
# Tests used:
# FXR [1] = tested on: FXR; design: method as in PMID 25247751; settings: read-out: EC50, FXR transactivation; cited from earlier work
# OSTα expression = tested on: OSTα expression; design: method as in PMID 25247751; settings: compared with 6-ECDCA; cited from earlier work
# FXR [2] = tested on: FXR; design: method as in PMID 10360171; settings: cited from earlier work
Compound,EC50 (FXR [1]) [µM],Potency in inducing expression of OSTα (in words) (OSTα expression),FXR ligand strength relative to CDCA (in words) (FXR [2])
"C[C@H](CCCOS(=O)(=O)O)[C@H]1CCC2C3C(CC[C@@]21C)[C@@]1(C)CCCC[C@H]1C[C@H]3O (stereo partly drawn) [compound 5, 7α-hydroxy-5β-cholan-24-sulfate]",~9,comparable to that of 6-ECDCA,
C[C@H](CCC(=O)O)[C@H]1CC[C@H]2[C@@H]3CC[C@@H]4C[C@H](O)CC[C@]4(C)[C@H]3CC[C@]12C [lithocholic acid],,,weaker natural ligands
